Reference: PubChem BioAssay (NCI)
“And” between values parts separate entries of the source, which are not always exact repeats. Equal values may be shown once.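 GI50 marks 50% less growth. TGI marks complete inhibition of growth.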

Legend:
Experiment in all cases: NCI tumour cell line growth inhibition, 384-well format
MCF7 breast = test system: MCF7 breast
TK-10 renal = test system: TK-10 renal
MALME-3M melanoma = test system: MALME-3M melanoma
RPMI-8226 leukemia = test system: RPMI-8226 leukemia
HT29 colon = test system: HT29 colon
BT-549 breast = test system: BT-549 breast
SF-295 CNS = test system: SF-295 CNS
HCT-15 colon = test system: HCT-15 colon
HS 578T breast = test system: HS 578T breast
IGROV1 ovarian = test system: IGROV1 ovarian
A549 NSCLC = test system: A549 NSCLC
SF-268 CNS = test system: SF-268 CNS
MDA-MB-435 melanoma = test system: MDA-MB-435 melanoma
T-47D breast = test system: T-47D breast
COLO 205 colon = test system: COLO 205 colon
EKVX NSCLC = test system: EKVX NSCLC
SNB-75 CNS = test system: SNB-75 CNS
K-562 leukemia = test system: K-562 leukemia
SK-MEL-5 melanoma = test system: SK-MEL-5 melanoma
HOP-62 NSCLC = test system: HOP-62 NSCLC
OVCAR-4 ovarian = test system: OVCAR-4 ovarian
DU-145 prostate = test system: DU-145 prostate
NCI-H522 lung = test system: NCI-H522 lung
LOX IMVI melanoma = test system: LOX IMVI melanoma
SF-539 CNS = test system: SF-539 CNS
UACC-62 melanoma = test system: UACC-62 melanoma
KM12 colon = test system: KM12 colon
HL-60(TB) leukemia = test system: HL-60(TB) leukemia
SNB-19 CNS = test system: SNB-19 CNS
OVCAR-5 ovarian = test system: OVCAR-5 ovarian
CAKI-1 renal = test system: CAKI-1 renal
OVCAR-8 ovarian = test system: OVCAR-8 ovarian
UACC-257 melanoma = test system: UACC-257 melanoma
SN12C renal = test system: SN12C renal
SR leukemia = test system: SR leukemia
SK-MEL-28 melanoma = test system: SK-MEL-28 melanoma
SW-620 colon = test system: SW-620 colon
NCI-H460 NSCLC = test system: NCI-H460 NSCLC
UO-31 renal = test system: UO-31 renal
NCI-H23 lung = test system: NCI-H23 lung
RXF 393 renal = test system: RXF 393 renal
HOP-92 NSCLC = test system: HOP-92 NSCLC
MDA-MB-231 breast = test system: MDA-MB-231 breast
CCRF-CEM leukemia = test system: CCRF-CEM leukemia
MOLT-4 leukemia = test system: MOLT-4 leukemia
PC-3 prostate = test system: PC-3 prostate
SK-MEL-2 melanoma = test system: SK-MEL-2 melanoma
786-0 renal = test system: 786-0 renal
SK-OV-3 ovarian = test system: SK-OV-3 ovarian
NCI-H226 lung = test system: NCI-H226 lung
OVCAR-3 ovarian = test system: OVCAR-3 ovarian
A498 renal = test system: A498 renal
M14 melanoma = test system: M14 melanoma
HCT-116 colon = test system: HCT-116 colon
NCI-H322M lung = test system: NCI-H322M lung
HCC-2998 colon = test system: HCC-2998 colon
NCI/ADR-RES ovarian = test system: NCI/ADR-RES ovarian
MDA-MB-468 breast = test system: MDA-MB-468 breast
U251 glioblastoma = test system: U251 glioblastoma
ACHN renal = test system: ACHN renal

O=S(=O)(NCCNC/C=C/c1ccc(Br)cc1)c1cccc2cnccc12
GI50 (MCF7 breast): 3.15 µM and 5.52 µM
TGI (MCF7 breast): 18.8 µM and 18.2 µM
GI50 (TK-10 renal): 10.4 µM and 11.3 µM
TGI (TK-10 renal): 22.2 µM and 23.5 µM
GI50 (MALME-3M melanoma): 0.391 µM and 2.09 µM
TGI (MALME-3M melanoma): 1.62 µM and 4.15 µM
GI50 (RPMI-8226 leukemia): 0.815 µM and 3.15 µM
TGI (RPMI-8226 leukemia): 5.43 µM and 11.4 µM
GI50 (HT29 colon): 3.17 µM and 4.08 µM
TGI (HT29 colon): 9.44 µM and 13.5 µM
GI50 (BT-549 breast): 3.57 µM and 6.51 µM
TGI (BT-549 breast): 11.8 µM and 19.2 µM
GI50 (SF-295 CNS): 15.4 µM and 14.7 µM
TGI (SF-295 CNS): 28.8 µM and 27.9 µM
GI50 (HCT-15 colon): 13.2 µM and 10.1 µM
TGI (HCT-15 colon): 26.1 µM and 21.9 µM
GI50 (HS 578T breast): 4.89 µM and 8.58 µM
TGI (HS 578T breast): 16.5 µM and 20.7 µM
GI50 (IGROV1 ovarian): 11.1 µM
TGI (IGROV1 ovarian): 23.3 µM
GI50 (A549 NSCLC): 14 µM
TGI (A549 NSCLC): 27.1 µM
GI50 (SF-268 CNS): 12 µM and 12.9 µM
TGI (SF-268 CNS): 24.4 µM and 25.6 µM
GI50 (MDA-MB-435 melanoma): 13 µM and 13.2 µM
TGI (MDA-MB-435 melanoma): 25.7 µM and 26 µM
GI50 (T-47D breast): 2.78 µM and 4.36 µM
TGI (T-47D breast): 13.3 µM and 16.8 µM
TGI (COLO 205 colon): 2.6 µM and 16.1 µM
GI50 (EKVX NSCLC): 6.07 µM and 10 µM
TGI (EKVX NSCLC): 18.9 µM and 21.7 µM
GI50 (SNB-75 CNS): 10.3 µM and 10.8 µM
TGI (SNB-75 CNS): 22 µM and 22.7 µM
GI50 (K-562 leukemia): 1.88 µM and 3.3 µM
TGI (K-562 leukemia): 3.88 µM and 10.6 µM
GI50 (SK-MEL-5 melanoma): 2.89 µM and 3.31 µM
TGI (SK-MEL-5 melanoma): 10.1 µM and 12.7 µM
GI50 (HOP-62 NSCLC): 11.8 µM and 14.2 µM
TGI (HOP-62 NSCLC): 24.2 µM and 27.3 µM
GI50 (OVCAR-4 ovarian): 12.8 µM and 13.8 µM
TGI (OVCAR-4 ovarian): 25.5 µM and 26.8 µM
GI50 (DU-145 prostate): 14.5 µM and 13.8 µM
TGI (DU-145 prostate): 27.8 µM and 26.9 µM
GI50 (NCI-H522 lung): 12.1 µM and 13.7 µM
TGI (NCI-H522 lung): 24.6 µM and 26.6 µM
GI50 (LOX IMVI melanoma): 11.6 µM and 10.2 µM
TGI (LOX IMVI melanoma): 23.9 µM and 22 µM
GI50 (SF-539 CNS): 5.11 µM and 10.2 µM
TGI (SF-539 CNS): 19.7 µM and 21.9 µM
GI50 (UACC-62 melanoma): 0.814 µM and 3.2 µM
TGI (UACC-62 melanoma): 6.43 µM and 10.8 µM
GI50 (KM12 colon): 4.08 µM and 6.28 µM
TGI (KM12 colon): 19 µM and 18.3 µM
GI50 (HL-60(TB) leukemia): 1.21 µM and 3.62 µM
TGI (HL-60(TB) leukemia): 10.8 µM and 12.6 µM
GI50 (SNB-19 CNS): 17 µM and 16.1 µM
TGI (SNB-19 CNS): 30.8 µM and 29.7 µM
GI50 (OVCAR-5 ovarian): 12.7 µM
TGI (OVCAR-5 ovarian): 25.4 µM
GI50 (CAKI-1 renal): 7.31 µM and 7.09 µM
TGI (CAKI-1 renal): 20.1 µM and 19.8 µM
GI50 (OVCAR-8 ovarian): 12.2 µM and 11.8 µM
TGI (OVCAR-8 ovarian): 24.7 µM and 24.2 µM
GI50 (UACC-257 melanoma): 2.2 µM and 2.34 µM
TGI (UACC-257 melanoma): 4.51 µM and 5.87 µM
GI50 (SN12C renal): 13.4 µM and 13.1 µM
TGI (SN12C renal): 26.3 µM and 25.8 µM
GI50 (SR leukemia): 0.34 µM and 3.27 µM
TGI (SR leukemia): 1.15 µM and 5.05 µM
GI50 (SK-MEL-28 melanoma): 1.88 µM and 4.09 µM
TGI (SK-MEL-28 melanoma): 15.6 µM and 14 µM
GI50 (SW-620 colon): 14 µM and 14.8 µM
TGI (SW-620 colon): 27.1 µM and 28.2 µM
GI50 (NCI-H460 NSCLC): 4.63 µM and 4.23 µM
TGI (NCI-H460 NSCLC): 15.9 µM and 14.5 µM
GI50 (UO-31 renal): 12.5 µM and 13.1 µM
TGI (UO-31 renal): 25.1 µM and 26 µM
GI50 (NCI-H23 lung): 6.06 µM and 10 µM
TGI (NCI-H23 lung): 20.3 µM and 21.6 µM
GI50 (RXF 393 renal): 1.08 µM and 5.38 µM
TGI (RXF 393 renal): 8.71 µM and 18 µM
GI50 (HOP-92 NSCLC): 10.7 µM and 10.8 µM
TGI (HOP-92 NSCLC): 22.6 µM and 22.7 µM
GI50 (MDA-MB-231 breast): 11.5 µM and 10.9 µM
TGI (MDA-MB-231 breast): 23.8 µM and 22.9 µM
GI50 (CCRF-CEM leukemia): 3.81 µM and 5.3 µM
TGI (CCRF-CEM leukemia): 11.4 µM and 16.8 µM
GI50 (MOLT-4 leukemia): 2.47 µM and 3.65 µM
TGI (MOLT-4 leukemia): 6.41 µM and 12.7 µM
GI50 (PC-3 prostate): 3.6 µM and 6.95 µM
TGI (PC-3 prostate): 18.6 µM and 19.8 µM
GI50 (SK-MEL-2 melanoma): 2.74 µM
TGI (SK-MEL-2 melanoma): 6.86 µM
GI50 ([…]-0 renal): 7.52 µM and 11.2 µM
TGI (786-0 renal): 20.1 µM and 23.3 µM
GI50 (SK-OV-3 ovarian): 10.4 µM and 10.9 µM
TGI (SK-OV-3 ovarian): 22.2 µM and 22.9 µM
GI50 (NCI-H226 lung): 11.2 µM and 15.4 µM
TGI (NCI-H226 lung): 23.4 µM and 28.8 µM
GI50 (OVCAR-3 ovarian): 11.3 µM and 14.7 µM
TGI (OVCAR-3 ovarian): 23.4 µM and 28 µM
GI50 (A498 renal): 5.06 µM and 10.3 µM
TGI (A498 renal): 19.6 µM and 22.1 µM
TGI (M14 melanoma): 3.48 µM and 18.4 µM
GI50 (HCT-116 colon): 5.55 µM and 5.73 µM
TGI (HCT-116 colon): 17.9 µM and 17.3 µM
GI50 (NCI-H322M lung): 10.2 µM and 10.7 µM
TGI (NCI-H322M lung): 21.9 µM and 22.6 µM
GI50 (HCC-2998 colon): 2.15 µM and 2.09 µM
TGI (HCC-2998 colon): 3.82 µM and 3.91 µM
GI50 (NCI/ADR-RES ovarian): 13.2 µM and 14.6 µM
TGI (NCI/ADR-RES ovarian): 26.1 µM and 27.9 µM
GI50 (MDA-MB-468 breast): 3.44 µM and 3.33 µM
TGI (MDA-MB-468 breast): 9.73 µM and 12.7 µM
GI50 (U251 glioblastoma): 12.3 µM and 12.5 µM
TGI (U251 glioblastoma): 24.9 µM and 25.2 µM
GI50 (ACHN renal): 11.7 µM and 13.5 µM
TGI (ACHN renal): 24 µM and 26.4 µM
